Results published in PMC10959927, “Platinum iodido drugs show potential anti-tumor activity, affecting cancer cell metabolism and inducing ROS and senescence in gastrointestinal cancer cells” (Communications Biology, 2024).
“And” between values parts separate entries of the source, which are not always exact repeats. Identical values can stand only once.

Experiments:
Assay type in all cases: cell-based, human
MKN45 cells [1] = assay: Clonogenic (CFU) assay with or without NAC; conditions: 10 days
Experimental: (§1) For the clonogenic assay we used two different approaches. […] Then, cells were cultured in a 6-well plate at a very low concentration (2 × 10^3 cells per well) and incubated for 10 days. […] To evaluate the role of ROS in cell proliferation, we supplemented the growth medium with 0.5 mM NAC. After 10 days, the cells were fixed with 1% glutaraldehyde and stained with 0.1% crystal violet. The number of colonies was quantified directly and reflected as CFUs: Colony Forming Units.

AGS cells [2] = assay: Clonogenic (CFU) assay with or without NAC; conditions: 10 days
Experimental: as §1

MKN45 cells [3] = assay: Flow cytometry mitochondrial mass and membrane potential (MitoTracker Green / CMXRos); conditions: for Fold change ΔΨm/MM: MKN45, IC50 doses 24 h, CMX-ROS/MitoGreen ratio vs untreated 1.0; for Fold change %CMXROS, ΔΨm / Fold change %MTGreen, MM: MKN45, fold change vs C, replicates
Experimental: (§2) We used flow cytometry to study the mitochondrial mass, mitochondrial membrane potential (ΔΨm) and cellular senescence of untreated and treated cells. Cells (5 × 10^4) were seeded in 24-multiwell dishes and cultured overnight. […] Cells were tripsinized, stained with Mitoprobes and resuspended in Flow buffer [1X PBS; 3% Fetal Bovine Serum (v/v); 3 mM EDTA (v/v)] before analysis with a 4-laser Attune NxT Acoustic Cytometer (Thermo Fisher Scientific). For Mitoprobe assays, […] DAPI (Sigma) was used to exclude dead cells. Data were analyzed with FlowJo 9.3 software (Tree Star Inc., Ashland, OR). For mitochondrial mass and ΔΨm measurement, Mitotracker Green (MTGreen, M7514, Invitrogen) and Mitotracker Red CMXRos (CMXROS, M7512, Invitrogen) were used, respectively. Probes were incubated with cells for 30 min at 37 °C at a concentration of 100 nM (MTGreen) and 20 nM (CMXROS), and fluorescence was detected using the filters (Ex488nm/Em530/30) BL1 and (Ex561nm/Em585/16) YL1, respectively. To determine mitochondria functionality, the ratio between ΔΨm (MitoTracker Red CMXRos) versus Mit. Mass (MitoTracker Green) was calculated. The gating strategy used in all the Flow Cytometry experiments is reflected in Fig.S10.

PANC1 cells = assay: as above; conditions: for Fold change ΔΨm/MM: PANC1, IC50 doses 24 h, CMX-ROS/MitoGreen ratio vs untreated 1.0; for Fold change %CMXROS, ΔΨm / Fold change %MTGreen, MM: PANC1, fold change vs C, replicates
Experimental: as §2

AGS cells [4] = assay: as above; conditions: fold change vs C, replicates
Experimental: as §2

[5] = system: telomeres, 36B4, MT-COX1, MT-CYB DNA of MKN45 cells; assay: Oxidized bases (FPG-sensitive lesions) in genome regions by qPCR; conditions: MKN45, IC50 concentration 24 h, normalized to control, single replicates; for TEL (Fold change - ΔCt TEL), oxidative DNA damage: FPG-digested vs undigested
Description: (§3) Total cellular DNA from MKN45 and PANC1 cells was extracted using an NZY Tissue gDNA Isolation Kit (Nzytech, MB13503) following the manufacturer’s instructions and quantified using a Nanodrop (Nanodrop Spectrophotometer ND-1000, ThermoFisher Scientific, Wilmington, DE, USA). We adapted the procedure described by O’Callaghan et al.[76] to measure oxidative DNA damage at telomeres, 36B4 genomic region and at mitochondrial DNA (MT-COX1, MT-CYB). This is a qPCR method based on differences in PCR kinetics between DNA template digested by Formamidopyrimidine DNA Glycosylase (FPG, Cat no. M0240S) and undigested DNA. This enzyme recognizes and cuts 8-oxoguanine, producing apurinic sites that are converted into single-strand breaks by its apurinic sites lyase activity. These single-strand breaks inhibit the PCR, thus, the ΔCT after digesting DNA by […] (Ct digested–Ct undigested) is proportional to the oxidative damage in the amplified region. DNA was incubated with 8 Units of FPG during 3 h in FPG buffer (NEB1, M0240S). The reaction was stopped by incubation at 95 °C for 5 min. qPCR analysis was performed on 40 ng of digested or undigested genomic DNA. Each qPCR was performed in triplicate including no-template controls in a StepOne Real‐time PCR System (Applied Biosystems, 4376357). Target genes (Table 3) were amplified using SYBR Green (Applied Biosystems, MB345). Thermal cycling of the qPCR reaction was initiated with a denaturation step at 95 °C for 10 min. The process consisted of 40 cycles (denaturation at 95 °C for 15 sec, annealing at 60 °C for 30 sec, and elongation at 72 °C for 30 sec). This experiment was repeated three independent times with 10–12 replicates.

[6] = system: telomeres, 36B4, MT-COX1, MT-CYB DNA of PANC1 cells; assay: as above; conditions: PANC1, IC50 concentration 24 h, normalized to control, single replicates; for TEL (Fold change - ΔCt TEL), oxidative DNA damage: FPG-digested vs undigested
Description: as §3

MKN45 cells [7] = assay: Immunofluorescence of γ-H2AX foci; conditions: Fig. 3B; for foci/cell, number of cells in class: cell count
Experimental: Cells (7 × 10^4) were seeded on 20 mm coverslips. […] Coverslips were incubated for 1 h with the primary antibody (Cell Signaling: H2AX Ser139 (#2595) and 53BP1 (#4937)) at room temperature, followed by a 1 h incubation with the appropriate secondary antibody. DNA was stained with DAPI. Fluorescence microscopy was performed using a NIKON Eclipse 90i. The image analysis was performed using the software program Nikon NIS-Elements and Image J.

[8] = MKN45 + NAC 0.5 mM, IC25 concentration
[9] = MKN45 + NAC 0.5 mM, IC50 concentration
[10] = MKN45, IC25 concentration, no NAC
[11] = MKN45, IC50 concentration, no NAC
[12] = AGS + NAC 0.5 mM, IC25 concentration
[13] = AGS + NAC 0.5 mM, IC50 concentration
[14] = AGS, IC25 concentration, no NAC
[15] = AGS, IC50 concentration, no NAC

SMILES | colonies (CFUs), mean ± SD (MKN45 cells [1]; [8]) | colonies (CFUs), mean ± SD (MKN45 cells [1]; [9]) | colonies (CFUs), mean ± SD (MKN45 cells [1]; [10]) | colonies (CFUs), mean ± SD (MKN45 cells [1]; [11]) | colonies (CFUs), mean ± SD (AGS cells [2]; [12]) | colonies (CFUs), mean ± SD (AGS cells [2]; [13]) | colonies (CFUs), mean ± SD (AGS cells [2]; [14]) | colonies (CFUs), mean ± SD (AGS cells [2]; [15]) | Fold change ΔΨm/MM (MKN45 cells [3]) | Fold change %CMXROS, ΔΨm (MKN45 cells [3]) | Fold change %MTGreen, MM (MKN45 cells [3]) | Fold change ΔΨm/MM (PANC1 cells) | Fold change %CMXROS, ΔΨm (PANC1 cells) | Fold change %MTGreen, MM (PANC1 cells) | Fold change %CMXROS, ΔΨm (AGS cells [4]) | Fold change %MTGreen, MM (AGS cells [4]) | TEL (Fold change - ΔCt TEL), oxidative DNA damage [5] | 36B4 (Fold change - ΔCt 36B4), oxidative DNA damage [5] | MT-COX1 (Fold change - ΔCt MT-COX1), oxidative DNA damage [5] | MT-CYB (Fold change - ΔCt MT-CYB), oxidative DNA damage [5] | further results
CC(C)[NH][Pt@SP1]([I])([I])[NH]C(C)C [I6, cis-[PtI2(isopropylamine)2]] | 526 ± 93 | 46 ± 2 | 1 ± 1.7 | 0 | 613 ± 89 | 329 ± 152 | 268 ± 63 | 0 | 0.26 and 0.21 and 0.27 | 0.24 and 0.19 and 0.3 | 0.93 and 0.91 and 1.1 | 0.61 and 0.39 and 0.44 | 0.75 and 0.98 and 0.61 | 1.22 and 2.53 and 2.1 | 0.58 and 0.29 and 0.42 | 0.83 and 0.75 and 1.298 | 0.7872 and 0.7903 and 0.6876 and 0.7373 and 0.6171 and 1.142 and 1.077 and 1.074 and 1.391 | 0.9227 and 0.9306 and 1.569 and 1.862 and 2.074 and 2.392 and 1.861 and 2.101 and 1.707 and 2.034 | 1.321 and 1.289 and 1.307 and 1.545 and 0.7235 and 0.8203 and 2.299 and 2.595 and 3.243 and 4.134 | 1.235 and 1.231 and 1.262 and 1.5934 and 1.492 and 1.356 and 1.4814 and 1.489 and 0.5469 and 0.6464 and 1.605 | TEL (Fold change - ΔCt TEL), oxidative DNA damage [6]: 5.579 and 4.9877 and 4.471 and 0.2398 and 0.9572 and 1.407 and 2.172 and 1.711 and 1.673 and 1.777; 36B4 (Fold change - ΔCt 36B4), oxidative DNA damage [6]: 1.888 and 2.028 and 1.034 and 1.832 and 3.4044 and 3.392 and 3.578 and 2.951 and 2.103 and 2.482; MT-COX1 (Fold change - ΔCt MT-COX1), oxidative DNA damage [6]: 1.444 and 1.678 and 1.516 and 1.609 and 1.88 and 0.5367 and 1.4145 and 1.209 and 1.263 and 1.421; MT-CYB (Fold change - ΔCt MT-CYB), oxidative DNA damage [6]: 1.356 and 1.264 and 1.349 and 1.774 and 2.04 and 1.998 and 2.191 and 4.689 and 8.16 and 4.981 and 6.184; foci/cell, share of cells in class (Suma 100) (MKN45 cells [7]; class 16-30 foci/cell): 16.6667; foci/cell, number of cells in class (MKN45 cells [7]; class 16-30 foci/cell): 7; foci/cell, share of cells in class (Suma 100) (MKN45 cells [7]; class 31-45 foci/cell): 14.2857; foci/cell, number of cells in class (MKN45 cells [7]; class 31-45 foci/cell): 6; foci/cell, share of cells in class (Suma 100) (MKN45 cells [7]; class 46-60 foci/cell): 23.8095; foci/cell, number of cells in class (MKN45 cells [7]; class 46-60 foci/cell): 10; foci/cell, share of cells in class (Suma 100) (MKN45 cells [7]; class <15 foci/cell): 11.9048; foci/cell, number of cells in class (MKN45 cells [7]; class <15 foci/cell): 5; foci/cell, share of cells in class (Suma 100) (MKN45 cells [7]; class >61 foci/cell): 33.3333; foci/cell, number of cells in class (MKN45 cells [7]; class >61 foci/cell): 14
CC(C)[NH][Pt@SP3]([I])([I])[NH]C(C)C [I5, trans-[PtI2(isopropylamine)2]] | 99 ± 6 | 52 ± 21 | 0 | 0 | 106 ± 46 | 2.3 ± 2.5 | 0 | 0 | 0.47 and 0.42 and 0.46 | 0.4 and 0.35 and 0.72 | 0.86 and 0.82 and 1.11 | 0.46 and 0.55 and 0.5 | 1.17 and 1.2 and 1.05 | 2.17 and 2.54 and 2.28 | 0.96 and 0.93 and 0.85 | 1.08 and 1.04 and 1.0618 | 0.4976 and 1.204 and 0.863 and 1.649 and 1.472 and 1.233 and 1.0991 and 1.079 and 1.087 and 1.22 | 1.703 and 1.211 and 0.8373 and 1.374 and 1.447 and 1.358 and 1.5791 and 1.8961 and 1.25 and 1.252 and 1.777 | 1.17 and 1.1588 and 1.212 and 1.316 and 0.8751 and 0.7769 and 2.591 and 2.527 and 2.762 and 3.255 | 1.053 and 0.8867 and 1.024 and 1.423 and 1.446 and 1.223 and 1.361 and 1.391 and 5.526 and 1.559 and 1.507 and 3.466 | TEL (Fold change - ΔCt TEL), oxidative DNA damage [6]: -0.2993 and -0.2888 and -0.1094 and 0.05784 and 0.7794 and 0.6409 and 1.117 and 1.284 and 1.153 and 1.2407; 36B4 (Fold change - ΔCt 36B4), oxidative DNA damage [6]: 1.4221 and 1.29 and 0.7644 and 2.073 and 2.467 and 2.333 and 2.539 and 4.489 and 2.165 and 1.996 and 1.737; MT-COX1 (Fold change - ΔCt MT-COX1), oxidative DNA damage [6]: 1.203 and 1.298 and 1.208 and 1.316 and 1.536 and 0.9948 and 1.085 and 1.109 and 1.083 and 1.329; MT-CYB (Fold change - ΔCt MT-CYB), oxidative DNA damage [6]: 1.015 and 1.063 and 1.122 and 1.165 and 2.0159 and 1.972 and 2.298 and 2.283 and 3.887 and 4.47 and 3.714 and 6.805; foci/cell, share of cells in class (Suma 100) (MKN45 cells [7]; class 16-30 foci/cell): 20; foci/cell, number of cells in class (MKN45 cells [7]; class 16-30 foci/cell): 5; foci/cell, share of cells in class (Suma 100) (MKN45 cells [7]; class 31-45 foci/cell): 24; foci/cell, number of cells in class (MKN45 cells [7]; class 31-45 foci/cell): 6; foci/cell, share of cells in class (Suma 100) (MKN45 cells [7]; class 46-60 foci/cell): 20; foci/cell, number of cells in class (MKN45 cells [7]; class 46-60 foci/cell): 5; foci/cell, share of cells in class (Suma 100) (MKN45 cells [7]; class <15 foci/cell): 16; foci/cell, number of cells in class (MKN45 cells [7]; class <15 foci/cell): 4; foci/cell, share of cells in class (Suma 100) (MKN45 cells [7]; class >61 foci/cell): 20; foci/cell, number of cells in class (MKN45 cells [7]; class >61 foci/cell): 5
